Experimental data as given in ChEMBL document CHEMBL5346907, “Discovery of a novel oral type Ⅰ CDK8 inhibitor against acute myeloid leukemia” (Eur J Med Chem, 2023).
pIC50: −log10 of the molar value. Activity calls are given as the source filed them. The calls are words filed in the database; no cut-off is given here.

Legend:
[1] = test system: MOLM-13; experiment: Antiproliferative activity against human MOLM-13 cells incubated for 48 hrs by CCK8 assay; assay type: functional
[2] = test system: HL-60; experiment: Induction of apoptosis in human HL-60 cells assessed as viable cells at 10 uM incubated for 48 hrs by annexin V-FITC/PI staining based flow cytometry (reference value: 96.5 %); assay type: functional; details: read-out: Activity
[3] = target: Tyrosine-protein kinase receptor TYRO3 (Homo sapiens) (UniProt Q06418); experiment: Inhibition of TYRO3 (unknown origin) at 1 uM preincubated for 10 mins followed by substrate addition measured for 60 to 120 mins by HTRF assay relative to control; details: time 70-130 min
[4] = target: Tyrosine-protein kinase receptor UFO (Homo sapiens) (UniProt P30530); experiment: Inhibition of AXL (unknown origin) at 1 uM preincubated for 10 mins followed by substrate addition measured for 60 to 120 mins by HTRF assay relative to control; details: time 70-130 min
[5] = test system: HL-60; experiment: Induction of apoptosis in human HL-60 cells assessed as necrotic cells at 5 uM incubated for 48 hrs by annexin V-FITC/PI staining based flow cytometry (reference value: 0.26 %); assay type: functional
[6] = Acute toxicity in C57BL/6 mouse assessed as histopathological change in liver at 2000 mg/kg, IG measured for 14 days by H&E staining based analysis; assay type: organism-based; details: in vivo, po, 336 h, time 14 day
[7] = target: CDK9/cyclin T1 (Homo sapiens) (UniProt O60563+P50750); experiment: Inhibition of CDK9/Cyclin T1 (unknown origin) at 1 uM preincubated for 10 mins followed by substrate addition measured for 60 to 120 mins by HTRF assay relative to control; assay type: protein-complex assay; details: time 70-130 min
[8] = Acute toxicity in C57BL/6 mouse assessed as histopathological change in kidney at 2000 mg/kg, IG measured for 14 days by H&E staining based analysis; assay type: organism-based; details: in vivo, po, 336 h, time 14 day
[9] = test system: A-375; experiment: Antiproliferative activity against human A-375 cells incubated for 48 hrs by CCK8 assay; assay type: functional
[10] = target: Cyclin-dependent kinase 2/cyclin E1 (Homo sapiens) (UniProt P24864+P24941); experiment: Inhibition of CDK2/Cyclin E1 (unknown origin) at 1 uM preincubated for 10 mins followed by substrate addition measured for 60 to 120 mins by HTRF assay relative to control; assay type: protein-complex assay; details: time 70-130 min
[11] = test system: HL-60; experiment: Induction of apoptosis in human HL-60 cells assessed as necrotic cells at 1 uM incubated for 48 hrs by annexin V-FITC/PI staining based flow cytometry (reference value: 0.26 %); assay type: functional
[12] = test system: C1498; experiment: Antitumor activity against mouse C1498 cells allografted in AML Balb/C mouse model assessed as reduction in tumor growth at 40 to 80 mg/kg, po administered daily for 15 days measured on every 2 days; assay type: functional, organism-based; details: dose 40-80 mg/kg, time 15.0 day
[13] = test system: C1498; experiment: Antitumor activity against mouse C1498 cells allografted in AML Balb/C mouse model assessed as decrease in Ki67 expression administered orally daily for 15 days measured after 3 weeks by IHC analysis; assay type: functional, cell-based; details: dose 40-80 mg/kg, route po, time 15.0 day
[14] = target: Insulin receptor-related protein (Homo sapiens) (UniProt P14616); experiment: Inhibition of IRR (unknown origin) at 1 uM preincubated for 10 mins followed by substrate addition measured for 60 to 120 mins by HTRF assay relative to control; details: time 70-130 min
[15] = target: Ephrin type-A receptor 4 (Homo sapiens) (UniProt P54764); experiment: Inhibition of EPHA4 (unknown origin) at 1 uM preincubated for 10 mins followed by substrate addition measured for 60 to 120 mins by HTRF assay relative to control; details: time 70-130 min
[16] = AUC (0 to infinity) in Sprague-Dawley rat at 10 mg/kg, po; assay type: ADME, organism-based; parameters: dose 10 mg/kg, route po; details: in vivo
[17] = target: Macrophage-stimulating protein receptor (Homo sapiens) (UniProt Q04912); experiment: Inhibition of RON (unknown origin) at 1 uM preincubated for 10 mins followed by substrate addition measured for 60 to 120 mins by HTRF assay relative to control; details: time 70-130 min
[18] = Toxicity in AML […] mouse model allografted with mouse C1498 cells assessed as body weight loss at 40 to 80 mg/kg, po administered daily for 15 days measured on every 2 days; assay type: organism-based; details: in vivo, 360 h, dose 40-80 mg/kg, time 15 day
[19] = target: Mast/stem cell growth factor receptor Kit (Homo sapiens) (UniProt P10721); experiment: Inhibition of KIT (unknown origin) at 1 uM preincubated for 10 mins followed by substrate addition measured for 60 to 120 mins by HTRF assay relative to control; details: time 70-130 min
[20] = target: Tyrosine-protein kinase Yes (Homo sapiens) (UniProt P07947); experiment: Inhibition of YES (unknown origin) at 1 uM preincubated for 10 mins followed by substrate addition measured for 60 to 120 mins by HTRF assay relative to control; details: time 70-130 min
[21] = target: Tyrosine-protein kinase Fyn (Homo sapiens) (UniProt P06241); experiment: Inhibition of FYN b (unknown origin) at 1 uM preincubated for 10 mins followed by substrate addition measured for 60 to 120 mins by HTRF assay relative to control; details: time 70-130 min
[22] = test system: C1498; experiment: Downregulation of STAT1 S727 phosphorylation in mouse C1498 cells allografted in AML Balb/C mouse model at 40 to 80 mg/kg, po administered daily for 15 days measured after 3 weeks by IHC analysis; assay type: functional, organism-based; details: dose 40-80 mg/kg, time 15.0 day
[23] = test system: HL-60; experiment: Induction of apoptosis in human HL-60 cells assessed as late apoptotic cells at 5 uM incubated for 48 hrs by annexin V-FITC/PI staining based flow cytometry (reference value: 1.07 %); assay type: functional
[24] = target: Insulin-like growth factor 1 receptor (Homo sapiens) (UniProt P08069); experiment: Inhibition of IGF1R (unknown origin) at 1 uM preincubated for 10 mins followed by substrate addition measured for 60 to 120 mins by HTRF assay relative to control; details: time 70-130 min
[25] = target: Cytoplasmic tyrosine-protein kinase BMX (Homo sapiens) (UniProt P51813); experiment: Inhibition of BMX (unknown origin) at 1 uM preincubated for 10 mins followed by substrate addition measured for 60 to 120 mins by HTRF assay relative to control; details: time 70-130 min
[26] = target: Tyrosine-protein kinase Tec (Homo sapiens) (UniProt P42680); experiment: Inhibition of TEC (unknown origin) at 1 uM preincubated for 10 mins followed by substrate addition measured for 60 to 120 mins by HTRF assay relative to control; details: time 70-130 min
[27] = Acute toxicity in C57BL/6 mouse assessed as histopathological change in lung at 2000 mg/kg, IG measured for 14 days by H&E staining based analysis; assay type: organism-based; details: in vivo, po, 336 h, time 14 day
[28] = target: Cyclin-dependent kinase 8 (Homo sapiens, UniProt P49336); experiment: Inhibition of CDK8 (unknown origin) in presence of ATP by ADP-Glo assay
[29] = target: Fibroblast growth factor receptor 3 (Homo sapiens) (UniProt P22607); experiment: Inhibition of FGFR3 (unknown origin) at 1 uM preincubated for 10 mins followed by substrate addition measured for 60 to 120 mins by HTRF assay relative to control; details: time 70-130 min
[30] = target: Receptor tyrosine-protein kinase erbB-2 (Homo sapiens) (UniProt P04626); experiment: Inhibition of HER2 (unknown origin) at 1 uM preincubated for 10 mins followed by substrate addition measured for 60 to 120 mins by HTRF assay relative to control; details: time 70-130 min

Tyrosine-protein kinase Yes (Homo sapiens), sequence (P07947 2-543 limits assumed): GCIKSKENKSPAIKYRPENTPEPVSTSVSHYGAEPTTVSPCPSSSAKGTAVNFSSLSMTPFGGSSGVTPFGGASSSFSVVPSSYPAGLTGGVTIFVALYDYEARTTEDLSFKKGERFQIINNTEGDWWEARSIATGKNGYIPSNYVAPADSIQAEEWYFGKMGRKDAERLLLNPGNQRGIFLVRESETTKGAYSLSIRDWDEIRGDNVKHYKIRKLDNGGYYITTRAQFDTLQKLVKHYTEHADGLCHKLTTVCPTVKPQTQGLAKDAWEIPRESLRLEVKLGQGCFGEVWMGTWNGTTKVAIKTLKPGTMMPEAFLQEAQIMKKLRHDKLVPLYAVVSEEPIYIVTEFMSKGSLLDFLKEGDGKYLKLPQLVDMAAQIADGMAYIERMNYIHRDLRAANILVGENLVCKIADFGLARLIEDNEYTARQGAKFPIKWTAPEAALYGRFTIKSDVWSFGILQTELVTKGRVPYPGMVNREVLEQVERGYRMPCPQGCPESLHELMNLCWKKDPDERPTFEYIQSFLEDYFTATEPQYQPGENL
Insulin-like growth factor 1 receptor (Homo sapiens), sequence (P08069 31-736 limits assumed): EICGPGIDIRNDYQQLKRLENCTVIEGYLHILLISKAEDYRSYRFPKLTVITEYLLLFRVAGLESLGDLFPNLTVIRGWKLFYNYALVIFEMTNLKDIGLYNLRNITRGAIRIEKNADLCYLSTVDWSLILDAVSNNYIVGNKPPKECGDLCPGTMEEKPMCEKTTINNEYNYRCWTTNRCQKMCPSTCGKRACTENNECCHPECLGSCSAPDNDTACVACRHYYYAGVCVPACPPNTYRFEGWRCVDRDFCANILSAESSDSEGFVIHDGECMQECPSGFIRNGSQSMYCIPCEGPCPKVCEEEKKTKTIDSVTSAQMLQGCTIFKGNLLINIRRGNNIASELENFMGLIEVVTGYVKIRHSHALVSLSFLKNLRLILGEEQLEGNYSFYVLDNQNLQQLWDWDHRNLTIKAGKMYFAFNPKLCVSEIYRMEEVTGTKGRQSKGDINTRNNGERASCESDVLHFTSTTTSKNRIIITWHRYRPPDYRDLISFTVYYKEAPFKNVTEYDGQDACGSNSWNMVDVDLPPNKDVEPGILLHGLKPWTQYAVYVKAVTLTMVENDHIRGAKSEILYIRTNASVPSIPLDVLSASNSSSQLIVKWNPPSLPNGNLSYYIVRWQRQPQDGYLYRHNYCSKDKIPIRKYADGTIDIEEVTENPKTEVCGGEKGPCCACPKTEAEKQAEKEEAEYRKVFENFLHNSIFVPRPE
Insulin-like growth factor 1 receptor (Homo sapiens), sequence (P08069 741-1367 limits assumed): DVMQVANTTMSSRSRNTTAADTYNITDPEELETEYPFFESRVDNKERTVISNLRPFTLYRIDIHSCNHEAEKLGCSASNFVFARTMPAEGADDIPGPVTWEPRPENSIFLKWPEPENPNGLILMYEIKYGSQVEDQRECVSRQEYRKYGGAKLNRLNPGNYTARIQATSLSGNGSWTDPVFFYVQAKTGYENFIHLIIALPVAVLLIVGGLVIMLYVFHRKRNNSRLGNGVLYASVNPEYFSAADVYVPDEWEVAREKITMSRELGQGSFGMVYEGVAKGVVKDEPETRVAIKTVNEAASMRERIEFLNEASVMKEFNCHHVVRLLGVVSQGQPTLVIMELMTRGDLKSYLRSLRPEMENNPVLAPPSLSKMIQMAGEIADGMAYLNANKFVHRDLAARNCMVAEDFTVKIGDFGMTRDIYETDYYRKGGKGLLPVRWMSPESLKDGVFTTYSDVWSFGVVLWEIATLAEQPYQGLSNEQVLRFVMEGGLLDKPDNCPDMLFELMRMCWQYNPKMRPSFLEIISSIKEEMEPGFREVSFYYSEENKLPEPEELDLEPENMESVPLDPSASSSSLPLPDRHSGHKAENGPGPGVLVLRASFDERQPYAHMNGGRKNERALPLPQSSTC
Tyrosine-protein kinase receptor TYRO3 (Homo sapiens), sequence (Q06418 whole entry): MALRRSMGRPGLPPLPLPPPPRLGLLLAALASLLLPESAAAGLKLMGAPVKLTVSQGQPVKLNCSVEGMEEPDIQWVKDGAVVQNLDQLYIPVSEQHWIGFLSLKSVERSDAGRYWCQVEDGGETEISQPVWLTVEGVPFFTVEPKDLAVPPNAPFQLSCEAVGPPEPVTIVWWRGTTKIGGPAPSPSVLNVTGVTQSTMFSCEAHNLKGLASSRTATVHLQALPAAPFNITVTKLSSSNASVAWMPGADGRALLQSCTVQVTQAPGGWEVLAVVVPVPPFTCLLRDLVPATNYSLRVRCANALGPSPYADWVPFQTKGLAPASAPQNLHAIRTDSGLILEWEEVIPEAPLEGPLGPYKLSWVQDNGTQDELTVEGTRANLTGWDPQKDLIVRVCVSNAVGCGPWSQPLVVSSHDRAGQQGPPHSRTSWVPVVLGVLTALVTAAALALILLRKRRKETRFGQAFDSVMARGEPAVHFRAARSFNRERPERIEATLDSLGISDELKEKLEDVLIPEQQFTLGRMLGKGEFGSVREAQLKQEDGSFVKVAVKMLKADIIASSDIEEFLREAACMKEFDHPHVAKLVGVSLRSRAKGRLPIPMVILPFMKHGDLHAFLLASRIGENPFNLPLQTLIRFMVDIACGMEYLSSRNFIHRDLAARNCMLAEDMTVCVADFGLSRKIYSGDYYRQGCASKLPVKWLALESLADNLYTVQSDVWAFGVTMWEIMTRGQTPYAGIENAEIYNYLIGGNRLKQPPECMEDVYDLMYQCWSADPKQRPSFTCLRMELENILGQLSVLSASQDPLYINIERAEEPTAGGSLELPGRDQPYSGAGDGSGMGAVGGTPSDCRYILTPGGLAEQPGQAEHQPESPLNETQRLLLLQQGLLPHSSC
Insulin receptor-related protein (Homo sapiens), sequence (P14616 27-742 limits assumed): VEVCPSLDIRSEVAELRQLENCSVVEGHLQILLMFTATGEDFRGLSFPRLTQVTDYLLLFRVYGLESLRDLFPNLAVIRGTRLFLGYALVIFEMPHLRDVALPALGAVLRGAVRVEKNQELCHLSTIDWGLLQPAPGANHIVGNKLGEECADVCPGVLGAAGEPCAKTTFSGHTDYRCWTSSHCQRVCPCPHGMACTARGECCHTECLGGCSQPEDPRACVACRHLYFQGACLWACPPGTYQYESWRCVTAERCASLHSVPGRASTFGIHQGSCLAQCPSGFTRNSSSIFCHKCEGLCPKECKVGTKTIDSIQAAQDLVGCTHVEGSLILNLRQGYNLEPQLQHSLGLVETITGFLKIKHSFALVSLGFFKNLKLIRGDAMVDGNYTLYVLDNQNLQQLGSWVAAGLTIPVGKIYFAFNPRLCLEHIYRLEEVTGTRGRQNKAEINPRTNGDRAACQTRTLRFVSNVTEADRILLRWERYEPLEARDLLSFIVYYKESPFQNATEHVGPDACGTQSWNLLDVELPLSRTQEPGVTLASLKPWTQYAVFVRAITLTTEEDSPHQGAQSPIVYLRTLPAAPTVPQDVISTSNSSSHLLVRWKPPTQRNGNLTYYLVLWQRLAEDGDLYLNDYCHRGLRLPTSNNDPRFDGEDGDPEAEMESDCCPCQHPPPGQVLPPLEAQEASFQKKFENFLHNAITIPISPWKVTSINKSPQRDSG
Insulin receptor-related protein (Homo sapiens), sequence (P14616 747-1297 limits assumed): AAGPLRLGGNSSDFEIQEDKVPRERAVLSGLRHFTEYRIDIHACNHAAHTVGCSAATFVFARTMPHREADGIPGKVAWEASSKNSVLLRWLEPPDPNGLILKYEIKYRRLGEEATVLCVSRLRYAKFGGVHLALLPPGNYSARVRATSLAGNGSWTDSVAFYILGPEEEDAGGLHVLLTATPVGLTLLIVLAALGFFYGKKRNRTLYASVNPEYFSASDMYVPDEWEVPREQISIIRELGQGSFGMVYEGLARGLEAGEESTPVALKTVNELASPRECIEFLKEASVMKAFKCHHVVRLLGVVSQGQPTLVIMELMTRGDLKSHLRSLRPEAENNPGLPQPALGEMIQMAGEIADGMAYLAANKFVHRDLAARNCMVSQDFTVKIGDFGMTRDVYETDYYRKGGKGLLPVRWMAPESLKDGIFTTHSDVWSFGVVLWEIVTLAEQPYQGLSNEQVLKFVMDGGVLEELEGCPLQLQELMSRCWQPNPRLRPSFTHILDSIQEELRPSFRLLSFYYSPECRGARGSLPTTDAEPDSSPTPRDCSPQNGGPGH
Tyrosine-protein kinase Fyn (Homo sapiens), sequence (P06241 2-537 limits assumed): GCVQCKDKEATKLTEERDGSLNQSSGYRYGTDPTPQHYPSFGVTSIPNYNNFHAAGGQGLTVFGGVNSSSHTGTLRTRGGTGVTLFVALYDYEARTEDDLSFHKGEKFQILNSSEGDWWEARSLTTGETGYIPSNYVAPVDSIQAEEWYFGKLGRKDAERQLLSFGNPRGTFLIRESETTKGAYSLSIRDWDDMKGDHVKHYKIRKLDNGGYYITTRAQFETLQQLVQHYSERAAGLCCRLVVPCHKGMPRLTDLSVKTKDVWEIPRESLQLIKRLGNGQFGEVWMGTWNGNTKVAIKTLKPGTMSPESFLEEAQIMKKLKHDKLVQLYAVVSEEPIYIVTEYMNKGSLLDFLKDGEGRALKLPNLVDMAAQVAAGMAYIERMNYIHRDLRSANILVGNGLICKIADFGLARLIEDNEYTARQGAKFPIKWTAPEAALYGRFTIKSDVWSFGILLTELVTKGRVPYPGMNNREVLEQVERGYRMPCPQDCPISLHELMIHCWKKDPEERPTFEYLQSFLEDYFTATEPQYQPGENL
Cyclin-dependent kinase 8, sequence (P49336 whole entry): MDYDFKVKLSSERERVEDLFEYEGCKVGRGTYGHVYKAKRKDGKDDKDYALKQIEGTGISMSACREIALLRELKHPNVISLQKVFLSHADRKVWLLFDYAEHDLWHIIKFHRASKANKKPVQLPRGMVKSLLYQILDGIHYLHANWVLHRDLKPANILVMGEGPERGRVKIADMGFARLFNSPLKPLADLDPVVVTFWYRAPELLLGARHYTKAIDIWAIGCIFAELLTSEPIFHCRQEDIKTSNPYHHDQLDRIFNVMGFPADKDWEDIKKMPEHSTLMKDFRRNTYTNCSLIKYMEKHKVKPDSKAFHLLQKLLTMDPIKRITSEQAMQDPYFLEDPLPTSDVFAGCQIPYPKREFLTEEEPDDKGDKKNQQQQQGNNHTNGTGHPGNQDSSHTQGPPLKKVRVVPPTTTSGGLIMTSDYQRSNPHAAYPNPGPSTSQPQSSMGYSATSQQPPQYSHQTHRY

## NC(=O)c1cccc(-c2cnc3[nH]ccc3c2)c1
[1]
  GI50: 1570 nM
[2]
  viability at 10 µM: 37.8%
[3]
  inhibition: 7%
[4]
  inhibition: 12.5%
[5]
  Activity: 8.48%
[6]
  Activity: Non-Toxic
[7]
  inhibition: 7.41%
[8]
  Activity: Non-Toxic
[9]
  GI50: > 50000 nM
[10]
  inhibition: 9.01%
[11]
  Activity: 5.04%
[12]
  Activity: Active
[13]
  Activity: Dose-Dependent Effect
[14]
  inhibition: 16.2%
[15]
  inhibition: 1.96%
[16]
  AUC(0-inf): 434 ng·h/mL
[17]
  inhibition: 0.43%
[18]
  Activity: Non-Toxic
[19]
  inhibition: 0%
[20]
  inhibition: 0%
[21]
  inhibition: 24.8%
[22]
  Activity: Active
[23]
  Activity: 1.45%
[24]
  inhibition: 7.77%
[25]
  inhibition: 5.13%
[26]
  inhibition: 0%
[27]
  Activity: Non-Toxic
[28]
  pIC50: 7.28
[29]
  inhibition: 10.8%
[30]
  inhibition: 3.32%
